Tests used:
[1] = biological target: T1, Human immunodeficiency virus type 1 integrase (Human immunodeficiency virus 1, UniProt Q7ZJM1); test: Inhibition of HIV1 integrase 3' processing activity
[2] = biological target: T1, Human immunodeficiency virus type 1 integrase; test: Inhibition of HIV1 integrase 3' strand transfer activity
[3] = test system: Human immunodeficiency virus 1; test: Antiviral activity against HIV1 Rf infected in CEM cells assessed as inhibition of viral replication after 5 days; format: functional, organism-based; details: Human immunodeficiency virus 1, Rf, CCRF-CEM, 120 h
CCRF-CEM = test: Cytotoxicity against human CEM cells; format: functional
[4] = Cmax in rat at 5 mg/kg, po; format: ADME, organism-based; parameters: dose 5 mg/kg, route oral; details: in vivo
[5] = Half life in rat at 5 mg/kg, po; format: ADME, organism-based; parameters: dose 5 mg/kg, route oral; details: in vivo
[6] = Oral bioavailability in rat at 5 mg/kg; format: ADME, organism-based; details: in vivo
[7] = Cmax in rat at 2 mg/kg, iv; details: in vivo
[8] = Half life in rat at 2 mg/kg, iv; details: in vivo
[9] = Tmax in rat at 5 mg/kg, po and 2 mg/kg, iv; details: in vivo
[10] = Plasma clearance in rat at 5 mg/kg, po and 2 mg/kg, iv
Rattus norvegicus = test: Volume of distribution at steady state in rat at 5 mg/kg, po and 2 mg/kg, iv; details: in vivo

T1 sequence (Q7ZJM1 whole entry): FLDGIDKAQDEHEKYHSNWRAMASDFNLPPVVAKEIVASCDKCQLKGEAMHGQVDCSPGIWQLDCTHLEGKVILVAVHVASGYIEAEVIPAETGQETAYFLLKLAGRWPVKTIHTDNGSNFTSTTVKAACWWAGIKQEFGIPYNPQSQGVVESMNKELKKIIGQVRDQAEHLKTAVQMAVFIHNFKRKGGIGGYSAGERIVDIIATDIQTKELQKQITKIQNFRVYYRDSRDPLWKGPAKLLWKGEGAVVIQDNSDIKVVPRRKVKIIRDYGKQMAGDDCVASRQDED

| SMILES | IC50 [1] [µM] | IC50 [2] [µM] | EC50 [3] [µM] | CC50 (CCRF-CEM) [µM] | further results |
| --- | --- | --- | --- | --- | --- |
| COc1cc2c(cc1OC)C(=O)C(C1=C(C3=C(O)C(=O)c4cc(OC)c(OC)cc4C3=O)C(=O)c3cc(OC)c(OC)cc3C1=O)=C(O)C2=O | > 150 | 10 | – | – | – |
| COc1ccc2c(c1)C(=O)C(O)=C(C1=C(C3=C(O)C(=O)c4cc(OC)ccc4C3=O)C(=O)c3ccccc3C1=O)C2=O | 22.5 | 10 | > 20 | – | – |
| CC1(C)C=Cc2c(ccc3c2C(=O)C(O)=C(C2=C(C4=C(O)C(=O)c5c(ccc6c5C=CC(C)(C)O6)C4=O)C(=O)c4c(ccc5c4C=CC(C)(C)O5)C2=O)C3=O)O1 | 1.7 | 3 | 0.39 | > 20 | – |
| CCCOc1ccc2c(c1)C(=O)C(C1=C(O)C(=O)c3c(ccc4c3C=CC(C)(C)O4)C1=O)=C(C1=C(O)C(=O)c3c(ccc4c3C=CC(C)(C)O4)C1=O)C2=O | 2.8 | 5 | 0.009 | 1 | – |
| CC1(C)CCc2c(ccc3c2C(=O)C(O)=C(C2=C(C4=C(O)C(=O)c5c(ccc6c5CCC(C)(C)O6)C4=O)C(=O)c4c(ccc5c4CCC(C)(C)O5)C2=O)C3=O)O1 | – | 9 | – | – | – |
| COc1cc2c(cc1OC)C(=O)C(C1=C(C3=C(O)C(=O)c4cc(OC)c(OC)cc4C3=O)C(=O)c3ccccc3C1=O)=C(O)C2=O | 62 | 12 | > 20 | – | – |
| COc1cccc2c1C(=O)C(C1=C(C3=C(O)C(=O)c4cccc(OC)c4C3=O)C(=O)c3ccccc3C1=O)=C(O)C2=O | – | 13 | > 20 | – | – |
| CC1(C)C=Cc2c(ccc3c2C(=O)C(O)=C(C2=C(C4=C(O)C(=O)c5c(ccc6c5C=CC(C)(C)O6)C4=O)C(=O)N(Cc4ccccc4)C2=O)C3=O)O1 | 4.5 | 4 | > 20 | – | – |
| COc1ccc2c(c1)C(=O)C(C1=C(O)C(=O)c3c(ccc4c3C=CC(C)(C)O4)C1=O)=C(C1=C(O)C(=O)c3c(ccc4c3C=CC(C)(C)O4)C1=O)C2=O | 2.3 | 2.5 | 0.027 | 10 | – |
| O=C1C(O)=C(C2=C(C3=C(O)C(=O)c4ccccc4C3=O)C(=O)c3ccccc3C2=O)C(=O)c2ccccc21 | 56 | 13 | 16 | 48 | – |
| CC1(C)C=Cc2c(ccc3c2C(=O)C(O)=C(C2=C(C4=C(O)C(=O)c5c(ccc6c5C=CC(C)(C)O6)C4=O)C(=O)c4ccccc4C2=O)C3=O)O1 | 2.5 | 2 | 0.029 | 10 | – |
| CC1(C)C=Cc2c(ccc3c2C(=O)C(O)=C(C2=C(C4=C(O)C(=O)c5c(ccc6c5C=CC(C)(C)O6)C4=O)C(=O)c4c(ccc5c4CCC(C)(C)O5)C2=O)C3=O)O1 | 1.8 | 6 | 0.47 | > 20 | Cmax [4]: 3200 ng/mL; half-life [5]: 21.7 h; bioavailability [6]: 2.6%; Cmax [7]: 50200 ng/mL; half-life [8]: 45 h; Tmax [9]: 7.5 h; clearance [10]: 0.00733 mL/min; Vdss (Rattus norvegicus): 27.7 mL |
| CC(C)Oc1ccc2c(c1)C(=O)C(C1=C(O)C(=O)c3c(ccc4c3C=CC(C)(C)O4)C1=O)=C(C1=C(O)C(=O)c3c(ccc4c3C=CC(C)(C)O4)C1=O)C2=O | 3 | > 100 | 0.24 | > 20 | – |
